Measurements taken from patent publication US20240228469A1, “PCSK9 INHIBITORS AND METHODS OF USE THEREOF” (AstraZeneca AB, priority 2022, published 2024).

Columns and labels:
[1] = molecular target: GSK3β (Glycogen synthase kinase-3 beta) (Homo sapiens, UniProt P49841); test: Assay 6 GSK3β assay (ThermoFisher Z-Lyte FRET); assay type: biochemical; settings: ATP Conc: 10 μM, geometric mean; read-out: Assay 6 (GSK3β FRET-Z-Lyte Cr) GMean IC50
How it was run: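 Z-Lyte FRET: 0.22-0.92 ng kinase with 2 μM Ser/Thr 09 peptide in HEPES pH 7.5, MgCl2, EGTA, 60 min at room temperature, then 60 min development. Compounds in 1% DMSO, 10-point 3-fold series from 10 μM; sigmoidal dose-response fit.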

[2] = molecular target: T1, PCSK9 (Homo sapiens, UniProt Q8NBP7, G670E/V474I); test: biochemical
T1 sequence (Q8NBP7 with tags, fused parts or gaps V474I/G670E): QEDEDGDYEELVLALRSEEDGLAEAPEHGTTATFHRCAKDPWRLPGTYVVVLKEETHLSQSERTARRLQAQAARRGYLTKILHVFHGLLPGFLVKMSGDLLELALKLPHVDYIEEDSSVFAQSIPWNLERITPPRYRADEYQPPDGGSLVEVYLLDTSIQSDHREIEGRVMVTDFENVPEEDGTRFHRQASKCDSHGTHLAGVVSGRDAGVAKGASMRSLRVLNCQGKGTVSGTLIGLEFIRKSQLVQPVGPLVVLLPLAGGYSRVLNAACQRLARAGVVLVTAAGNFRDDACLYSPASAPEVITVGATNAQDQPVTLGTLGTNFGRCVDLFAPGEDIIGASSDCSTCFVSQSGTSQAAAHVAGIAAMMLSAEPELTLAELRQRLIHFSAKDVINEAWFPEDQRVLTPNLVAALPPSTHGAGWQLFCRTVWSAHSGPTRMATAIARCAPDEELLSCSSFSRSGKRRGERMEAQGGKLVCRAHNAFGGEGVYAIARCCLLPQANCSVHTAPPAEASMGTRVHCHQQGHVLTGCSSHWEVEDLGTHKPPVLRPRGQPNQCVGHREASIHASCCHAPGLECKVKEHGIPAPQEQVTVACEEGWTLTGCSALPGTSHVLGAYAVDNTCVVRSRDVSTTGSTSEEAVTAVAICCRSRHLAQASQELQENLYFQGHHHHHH

[3] = molecular target: T1, PCSK9; test: Assay 3 PCSK9 LDL-C uptake assay in HepG2 cells; assay type: cell-based; design: TEV site (C); His6 (C); host or cells: added to HepG2 (ATCC #HB-8065); settings: 125 nM PCSK9, pHrodo Red-LDL, read-out: Assay 3 LDL uptake potency
Text: This assay measures for PCSK9 antagonist activity based on a test compound's capacity to restore LDL-C-uptake in HepG2 cells. The assay is based on exogenous PCSK9 and LDL-C complexed with a pH-sensitive dye. Outside the cells, at neutral pH, the pHrodo Red-LDL is dimly fluorescent but upon LDLR mediated endocytosis it fluoresces brightly. PCSK9 traffics the LDLR to intracellular degradation and reduces uptake of LDL-C. Inhibition of PCSK9 reduces LDLR degradation and the increased LDL-C uptake is quantified by fluorescence microscopy.
• Cell medium: MEM supplemented with 10% FBS, 1×NEAA and Sodium Pyruvate • Assay medium: OptiMem supplemented with penicillin/streptomycin • Cells: HepG2 (ATCC #HB-8065)
• 1. Cryopreserved HepG2 cells were thawed in assay medium and centrifuged for 5 min at 250 g. Supernatant was discarded and the cell pellet resuspended in cell medium and counted with a Nucleocounter. Cells were again centrifuged 5 min at 250 g and the pellet was resuspended to 500000 cells/mL in assay medium. • 2. 20 μL of above cell mix was dispensed into black μclear TC treated 384 well plates with Multidrop Combi and left at room temperature for 20 minutes. • 3. Plates were incubated at 37° C., 5% CO2 for 24 h
• 1. Test compounds were prepared in concentration response in DMSO with a half-log dilution factor in DMSO in Echo 384 LDV plates starting at 10 mM. • 2. 30 nL of above test compounds were dispensed with Echo 655 to cells for a top concentration of 10 μM • 3. 10 μL PCSK9 in assay medium was dispensed to cells with Multidrop Combi for 125 nM final concentration in the wells. • 4. Plates were incubated at 37° C., 5% CO2 for 24 h
• 1. 10 μL pHrodo Red-LDL in assay medium was dispensed to cells with Multidrop Combi for […] • 2. Plates were incubated at 37° C., 5% CO2 and imaged with the Incucyte S3 after 4 h and 24 h
Image data was processed using Incucyte 2021, a software to identify cells and red fluorescent intensity. Screener was used to further process data. Data was normalized as % effect of the signal between median values of the on-plate controls of DMSO and 100 nM Evolocumab according to the formula % effect=−100*(x−DMSO)/(Evolocumab−DMSO) where x equals the measured signal. Concentration response data of the normalized values were fitted using a four-parameter logistic fit.

[4] = molecular target: T2, potassium ion channel hERG (Homo sapiens, UniProt Q12809); test: Assay 5 hERG assay (patch clamp, CHO cells over-expressing hERG); assay type: cell-based; settings: SyncroPatch 384PE, room temperature, geometric mean, read-out: Assay 5 (hERG Hu CHO if EPh CR-Syncro) GMean IC50
T2 construct: expressed in transfected cells; host or cells: Chinese hamster ovary K1 (CHO)
T2 sequence (Q12809 whole entry): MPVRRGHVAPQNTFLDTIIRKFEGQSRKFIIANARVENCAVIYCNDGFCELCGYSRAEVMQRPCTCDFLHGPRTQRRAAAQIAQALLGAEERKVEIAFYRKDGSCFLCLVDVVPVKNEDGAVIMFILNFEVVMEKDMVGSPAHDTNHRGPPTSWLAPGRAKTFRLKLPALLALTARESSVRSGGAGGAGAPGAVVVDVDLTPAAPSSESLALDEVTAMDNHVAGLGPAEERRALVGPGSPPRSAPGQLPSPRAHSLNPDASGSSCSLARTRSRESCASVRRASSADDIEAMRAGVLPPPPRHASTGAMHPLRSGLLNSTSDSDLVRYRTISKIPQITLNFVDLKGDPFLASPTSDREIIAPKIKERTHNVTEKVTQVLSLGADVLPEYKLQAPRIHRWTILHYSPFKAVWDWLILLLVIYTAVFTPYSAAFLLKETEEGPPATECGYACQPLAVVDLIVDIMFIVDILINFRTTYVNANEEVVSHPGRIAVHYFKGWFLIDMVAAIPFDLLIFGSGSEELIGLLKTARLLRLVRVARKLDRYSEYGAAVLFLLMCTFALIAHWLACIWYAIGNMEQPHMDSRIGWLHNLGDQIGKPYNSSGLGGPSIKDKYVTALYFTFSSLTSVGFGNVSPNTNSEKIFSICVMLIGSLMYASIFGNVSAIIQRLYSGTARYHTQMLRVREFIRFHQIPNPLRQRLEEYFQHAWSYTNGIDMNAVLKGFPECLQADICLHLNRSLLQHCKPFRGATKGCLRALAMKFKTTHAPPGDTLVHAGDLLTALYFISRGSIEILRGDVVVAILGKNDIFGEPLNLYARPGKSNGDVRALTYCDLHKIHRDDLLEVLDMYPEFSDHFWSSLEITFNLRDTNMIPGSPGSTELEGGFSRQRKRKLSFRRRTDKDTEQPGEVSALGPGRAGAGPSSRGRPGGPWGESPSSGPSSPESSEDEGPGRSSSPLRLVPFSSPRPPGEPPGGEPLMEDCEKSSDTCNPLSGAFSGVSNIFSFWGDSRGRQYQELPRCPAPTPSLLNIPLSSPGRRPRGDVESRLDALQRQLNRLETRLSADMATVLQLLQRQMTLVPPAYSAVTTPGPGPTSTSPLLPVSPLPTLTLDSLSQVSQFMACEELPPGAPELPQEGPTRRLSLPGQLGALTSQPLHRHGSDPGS
How it was run: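 hERG currents recorded by automated patch clamp at room temperature in CHO-K1 cells, 6-point cumulative concentrations. SyncroPatch runs used KF-based internal (pH 7.2) and NMDG-containing external solution (pH 7.4), 0.33% DMSO; QPatchII runs used 2% or 0.4% DMSO. Only wells meeting seal-resistance and current-size criteria kept.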

GSK3β (Glycogen synthase kinase-3 beta), sequence (P49841 whole entry): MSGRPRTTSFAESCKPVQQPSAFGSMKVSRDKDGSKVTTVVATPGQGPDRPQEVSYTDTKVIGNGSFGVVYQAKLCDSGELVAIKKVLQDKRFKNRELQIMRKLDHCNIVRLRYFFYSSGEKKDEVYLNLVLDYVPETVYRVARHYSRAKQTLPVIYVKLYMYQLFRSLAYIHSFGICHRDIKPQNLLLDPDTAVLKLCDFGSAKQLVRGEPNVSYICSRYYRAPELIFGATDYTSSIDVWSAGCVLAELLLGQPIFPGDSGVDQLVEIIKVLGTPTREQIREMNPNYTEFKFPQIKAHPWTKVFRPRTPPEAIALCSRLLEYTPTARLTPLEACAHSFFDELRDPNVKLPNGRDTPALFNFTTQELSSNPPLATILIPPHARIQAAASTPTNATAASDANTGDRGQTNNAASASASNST

Structure (SMILES)	IC50 [1] [nM]	IC50 [2] [nM]	EC50 [3] [nM]	IC50 [4] [nM]
COc1ccnn(-c2ccc(N[C@H]3CC[C@H](Nc4ncc(C)nn4)C3)nc2)c1=O [Example 220, 4-Methoxy-2-(6-(((1S,3S)-3-((6-methyl-1,2,4-triazin-3-yl)amino)cyclopentyl)amino)pyridin-3-yl)pyridazin-3(2H)-one]	> 10000	1.7	200	> 200000
Cc1cnc(N[C@H]2CC[C@H](Nc3ccc(-n4cccc(F)c4=O)cn3)C2)nn1 [Example 137, 3-Fluoro-6′-(((1S,3S)-3-((6-methyl-1,2,4-triazin-3-yl)amino)cyclopentyl)amino)-2H-[1,3′-bipyridin]-2-one]	3520	10	700	> 40100
O=c1c(OC(F)F)cccn1-c1ccc(N[C@H]2CC[C@H](Nc3ncc(C4CC4)nn3)C2)nc1 [Example 165, 6′-(((1S,3S)-3-((6-Cyclopropyl-1,2,4-triazin-3-yl)amino)cyclopentyl)amino)-3-(difluoromethoxy)-2H-[1,3′-bipyridin]-2-one]	5100	1.3	100	25500
O=c1ccc(-c2cn[nH]c2)cn1-c1ccc(N[C@H]2CC[C@H](Nc3ncc(C4CC4)nn3)C2)nc1 [Example 123, 6′-(((1S,3S)-3-((6-Cyclopropyl-1,2,4-triazin-3-yl)amino)cyclopentyl)amino)-5-(1H-pyrazol-4-yl)-2H-[1,3′-bipyridin]-2-one]	8840	1.4	100	> 40100
Cc1cnc(N[C@H]2CC[C@H](Nc3ccc(-n4cccc(OC(F)(F)F)c4=O)cn3)C2)nn1 [Example 138, 6′-(((1S,3S)-3-((6-Methyl-1,2,4-triazin-3-yl)amino)cyclopentyl)amino)-3-(trifluoromethoxy)-2H-[1,3′-bipyridin]-2-one]	> 10000	4	200	> 40100
COc1ccc(=O)n(-c2ccc(N[C@H]3CC[C@H](Nc4ncc(C(=O)NC5COC5)nn4)C3)nc2)c1 [Example 154, 3-(((1S,3S)-3-((5-Methoxy-2-oxo-2H-[1,3′-bipyridin]-6′-yl)amino)cyclopentyl)amino)-N-(oxetan-3-yl)-1,2,4-triazine-6-carboxamide]	3900	14	200	> 40100
O=C(NC1COC1)c1cnc(N[C@H]2CC[C@H](Nc3ccc(-n4cc(Cl)ccc4=O)cn3)C2)nn1 [Example 158, 3-(((1S,3S)-3-((5-Chloro-2-oxo-2H-[1,3′-bipyridin]-6′-yl)amino)cyclopentyl)amino)-N-(oxetan-3-yl)-1,2,4-triazine-6-carboxamide]	> 10000	7.6	200	> 40100
O=C(NC1COC1)c1cnc(N[C@H]2CC[C@H](Nc3ccc(-n4cccc(C(F)(F)F)c4=O)cn3)C2)nn1 [Example 161, N-(Oxetan-3-yl)-3-(((1S,3S)-3-((2-oxo-3-(trifluoromethyl)-2H-[1,3′-bipyridin]-6′-yl)amino)cyclopentyl)amino)-1,2,4-triazine-6-carboxamide]	> 10000	3.8	100	> 40100
Cc1cnc(N[C@H]2CC[C@H](Nc3ccc(-n4ccc(Cl)cc4=O)cn3)C2)nn1 [Example 182, 4-Chloro-6′-(((1S,3S)-3-((6-methyl-1,2,4-triazin-3-yl)amino)cyclopentyl)amino)-2H-[1,3′-bipyridin]-2-one]	> 10000	9.4	600	> 40100
Cc1cnc(N[C@H]2CC[C@H](Nc3ccc(-n4cccc(C#N)c4=O)cn3)C2)nn1 [Example 136, 6′-(((1S,3S)-3-((6-Methyl-1,2,4-triazin-3-yl)amino)cyclopentyl)amino)-2-oxo-2H-[1,3′-bipyridine]-3-carbonitrile]	> 10000	3	200	> 40100
Cc1cnc(N[C@H]2CC[C@H](Nc3ccc(-n4c(=O)n(C)c5ccc(C#N)nc54)cn3)C2)nn1 [Example 213, 1-Methyl-3-(6-(((1S,3S)-3-((6-methyl-1,2,4-triazin-3-yl)amino)cyclopentyl)amino)pyridin-3-yl)-2-oxo-2,3-dihydro-1H-imidazo[4,5-b]pyridine-5-carbonitrile]	> 10000	1.6	200	> 40100
COc1cccn(-c2ccc(N[C@H]3CC[C@H](Nc4ncc(C(=O)NC5COC5)nn4)C3)nc2)c1=O [Example 153, 3-(((1S,3S)-3-((3-Methoxy-2-oxo-2H-[1,3′-bipyridin]-6′-yl)amino)cyclopentyl)amino)-N-(oxetan-3-yl)-1,2,4-triazine-6-carboxamide]	> 10000	3.3	100	> 40100
Cc1cnc(N[C@H]2CC[C@H](Nc3ccc(-n4nccc(OC(F)F)c4=O)cn3)C2)nn1 [Example 281, 4-(Difluoromethoxy)-2-(6-(((1S,3S)-3-((6-methyl-1,2,4-triazin-3-yl)amino)cyclopentyl)amino)pyridin-3-yl)pyridazin-3(2H)-one]	> 10000	2.5	300	> 40100
Cc1cnc(N[C@H]2CC[C@H](Nc3ccc(-n4c(=O)n(C)c5cc(C#N)ccc54)cn3)C2)nn1 [Example 211, 3-Methyl-1-(6-(((1S,3S)-3-((6-methyl-1,2,4-triazin-3-yl)amino)cyclopentyl)amino)pyridin-3-yl)-2-oxo-2,3-dihydro-1H-benzo[d]imidazole-5-carbonitrile]	> 10000	1.4	100	16500
Cc1ccc(=O)n(-c2ccc(N[C@H]3CC[C@H](Nc4ncc(C)nn4)C3)nc2)c1 [Example 130, 5-Methyl-6′-(((1S,3S)-3-((6-methyl-1,2,4-triazin-3-yl)amino)cyclopentyl)amino)-2H-[1,3′-bipyridin]-2-one]	5700	14	200	> 40100
Cc1cnc(N[C@H]2CC[C@H](Nc3ccc(-n4cccc(-c5c[nH]nn5)c4=O)cn3)C2)nn1 [Example 200, 6′-(((1S,3S)-3-((6-Methyl-1,2,4-triazin-3-yl)amino)cyclopentyl)amino)-3-(1H-1,2,3-triazol-4-yl)-2H-[1,3′-bipyridin]-2-one]	> 10000	2.5	100	> 40100
Cc1cnc(N[C@H]2CC[C@H](Nc3ccc(-n4cccc(-c5cn[nH]c5)c4=O)cn3)C2)nn1 [Example 199, 6′-(((1S,3S)-3-((6-Methyl-1,2,4-triazin-3-yl)amino)cyclopentyl)amino)-3-(1H-pyrazol-4-yl)-2H-[1,3′-bipyridin]-2-one]	> 10000	2	100	> 40100
Cc1cnc(N[C@H]2CC[C@H](Nc3ccc(-n4cccc(C)c4=O)cn3)C2)nn1 (racemic) [Example 173, rel-3-Methyl-6′-(((1 R,3R)-3-((6-methyl-1,2,4-triazin-3-yl)amino)cyclopentyl)amino)-2H-[1,3′-bipyridin]-2-one]	1950	4.2	100	> 40100
